From patent US10525148B2, “Systems and methods for preclinical models of metastases” (The Translational Genomics Research Institute, priority 2014, dated 2020)

Tests used:
[1] = system: PDX from CNS metastasis (spine) of lung adenocarcinoma; experiment: Tumor volume of patient-derived xenograft (lung adenocarcinoma spine metastasis) in NSG mice under treatment (FIG. 7, FIG. 8); format: in vivo; conditions: for tumor growth (tumor volume) during treatment: PDX in NSG mice, daily oral gavage for 18 days, SAHA 100 mg/kg, PD0325901 20 mg/kg, vs vehicle
Text: (§1) Immediately after surgical removal, fresh tissue was collected for heterotopic (flank) injection into NSG mice (NOD scid gamma mice—or mice that are on a NOD/ShiLtJ background with severe combined immune deficiency mutation and the IL2 receptor gamma chain deficiency). Excised patient tissue was placed in a culture dish with medium and minced into small pieces, such that minced tissue suspensions could be drawn through a 16-gauge needle. Minced tissues were placed in a conical tube, media was withdrawn, and matrigel was added to the wet tissue in a 1:1 volume ratio. Approximately 200 μl of the matrigel-tissue mixture was injected subcutaneously into the flanks of two to four mice, and tumors were allowed to develop until the tumors achieved a length of 1.0 to 2.0 cm in the longest dimension. Mice were then sacrificed by CO2 asphyxiation, and their flank tumors were immediately excised. Portions of each excised flank tumor were archived as frozen tissue and as paraffin-embedded tissue following formalin fixation. The remainder of each tumor was dispersed in DMEM, processed as described above and passed by injection into the flank of another NSG mouse.
In view of these changes in the patient's molecular profile, a treatment model was created. […] For example, in view of the G12C mutation in the KRAS gene and the additional amplification this same gene found in the subject's exome, a MEK inhibitor (i.e., a pharmaceutical that targets the mitogen-activated kinase kinase enzymes MEK1 and MEK2) was selected. In this experiment, the MEK inhibitor selected was PD0325901. In addition, the detection of the HDAC9 amplification drove the selection of a drug that has been previously shown efficacy of epigenetic therapy in metastatic lung cancer, suberanilohydroxamic acid or SAHA, which is a potent HDAC inhibitor.
After establishing which treatments were to be used in the case study, 15 animals comprising the PDX were divided into three groups. A first group received vehicle only via intraperitoneal injection each day for 18 days. A second group received SAHA (100 mg/kg) via oral gavage each day for 18 days and a third group received PD0325901 (20 mg/kg) each day for 18 days via oral gavage. Both during and after treatment, tumor volume was measured in each of the mice and the data is plotted in FIG. 7.
Additional experiments were conducted to investigate the potential impact of combination drugs. Referring now to FIG. 8, the drug treatment experiments described above were repeated with an additional pharmaceutical composition, 5-Azacytidine, which is a nucleoside analog that is an FDA-approved treatment for some forms of cancer. […]

[2] = system: patient-derived xenograft of lung cancer metastasized to the central nervous system (KRAS mutation); experiment: Tumor weight of patient-derived xenograft of lung cancer CNS metastasis (FIG. 13); format: in vivo, mice; conditions: treatment conditions with MEK inhibitor
Text: as §1, with “Portions of each excised flank tumor were archived as frozen tissue and as paraffin-embedded tissue following formalin fixation. The remainder of each tumor was dispersed in DMEM, processed as described above and passed by injection into the flank of another NSG mouse.” left out
(§2) Referring next to FIGS. 12 and 13, samples from a different patient (i.e., a patient with lung cancer that metastasized to portions the central nervous system) that were analyzed using some aspects of the instant invention. […] As a result of this analysis, it was determined that a MEK inhibitor (e.g., PD0325901) should be employed in the patient-derived xenograft context to assess potential for therapeutic efficacy.

ERK phosphorylation = experiment: Immunohistochemistry with anti-phosphorylated ERK antibody (FIG. 14); format: in vivo
Method: FIG. 14 is an immunohistochemistry study of tissue from the patient whose samples were detailed in FIGS. 12 and 13. In this study, an anti-phosphorylated ERK antibody was used to assess ERK phosphorylation in the various treatment conditions.
Sections were mounted onto a glass slide and stained with reagents designed to detect proteins of interest by IHC staining. This allows samples of many or all of the tumor specimens to be stained at one time. IHC staining was performed to determine the presence or absence of specific proteins and was used to validate potential targets discovered by genome-wide experiments (as previously described).
as §2

[3] = have been shown; cited from earlier work

Row | Compound | tumor volume growth, single agent and combinations with 5-Azacytidine ([1]; 5-Azacytidine 2.0 mg/kg intraperitoneal, combinations compared to SAHA and PD0325901 alone, FIG. 8) | gains in tumor weight [2] | tumor growth (tumor volume) during treatment ([1]; FIG. 7) | rate of tumor growth after treatment stopped ([1]; after day 18, FIG. 7) | ERK phosphorylation 14 days after treatment (ERK phosphorylation; 14 days after treatment) | ERK phosphorylation in the metastasis cells during treatment (ERK phosphorylation; compared to vehicle alone) | blood-brain barrier penetration [3]
1 | Nc1ncn([C@@H]2O[C@H](CO)[C@@H](O)[C@H]2O)c(=O)n1 [5-Azacytidine] | did not serve as an efficacious treatment |  |  |  |  |  | 
2 | O=C(NOC[C@H](O)CO)c1ccc(F)c(F)c1Nc1ccc(I)cc1F [PD0325901] |  | most reduced gains in tumor weight | little to no tumor growth | reduced compared to animals in the SAHA and control groups | returned to vehicle-treatment levels | reduced ERK phosphorylation | blood-brain barrier penetrant
3 | O=C(CCCCCCC(=O)Nc1ccccc1)NO [SAHA, suberanilohydroxamic acid] |  |  | reduced tumor growth |  |  |  | blood-brain barrier penetrant
